Where a name gives a salt, the structure may show the parent alone.
These compounds were tested against T1, recombinant guanylate cyclase reporter cell line (Rattus norvegicus, UniProt P19686+P20595) (assay: Action on recombinant guanylate cyclase reporter cell line). Details: in some cases mean values obtained from individual determinations.
T1 construct: expressed in transfected cells
T1 sequence (P20595 1-619): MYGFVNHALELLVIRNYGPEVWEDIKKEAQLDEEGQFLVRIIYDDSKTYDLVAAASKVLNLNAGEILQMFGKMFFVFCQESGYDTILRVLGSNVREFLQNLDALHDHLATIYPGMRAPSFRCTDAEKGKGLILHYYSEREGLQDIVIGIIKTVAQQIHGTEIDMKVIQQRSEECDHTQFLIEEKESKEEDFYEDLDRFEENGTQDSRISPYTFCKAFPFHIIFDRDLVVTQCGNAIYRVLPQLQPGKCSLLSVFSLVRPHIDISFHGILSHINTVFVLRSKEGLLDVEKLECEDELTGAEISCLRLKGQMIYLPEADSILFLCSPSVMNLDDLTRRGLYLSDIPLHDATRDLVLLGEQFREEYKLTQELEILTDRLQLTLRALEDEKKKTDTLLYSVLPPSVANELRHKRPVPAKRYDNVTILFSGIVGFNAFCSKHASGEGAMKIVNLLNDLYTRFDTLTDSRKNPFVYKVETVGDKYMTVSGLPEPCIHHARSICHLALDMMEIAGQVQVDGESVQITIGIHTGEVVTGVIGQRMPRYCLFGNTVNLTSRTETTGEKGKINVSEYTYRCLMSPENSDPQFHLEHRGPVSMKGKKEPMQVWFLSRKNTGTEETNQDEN
T1 sequence (P19686 1-690): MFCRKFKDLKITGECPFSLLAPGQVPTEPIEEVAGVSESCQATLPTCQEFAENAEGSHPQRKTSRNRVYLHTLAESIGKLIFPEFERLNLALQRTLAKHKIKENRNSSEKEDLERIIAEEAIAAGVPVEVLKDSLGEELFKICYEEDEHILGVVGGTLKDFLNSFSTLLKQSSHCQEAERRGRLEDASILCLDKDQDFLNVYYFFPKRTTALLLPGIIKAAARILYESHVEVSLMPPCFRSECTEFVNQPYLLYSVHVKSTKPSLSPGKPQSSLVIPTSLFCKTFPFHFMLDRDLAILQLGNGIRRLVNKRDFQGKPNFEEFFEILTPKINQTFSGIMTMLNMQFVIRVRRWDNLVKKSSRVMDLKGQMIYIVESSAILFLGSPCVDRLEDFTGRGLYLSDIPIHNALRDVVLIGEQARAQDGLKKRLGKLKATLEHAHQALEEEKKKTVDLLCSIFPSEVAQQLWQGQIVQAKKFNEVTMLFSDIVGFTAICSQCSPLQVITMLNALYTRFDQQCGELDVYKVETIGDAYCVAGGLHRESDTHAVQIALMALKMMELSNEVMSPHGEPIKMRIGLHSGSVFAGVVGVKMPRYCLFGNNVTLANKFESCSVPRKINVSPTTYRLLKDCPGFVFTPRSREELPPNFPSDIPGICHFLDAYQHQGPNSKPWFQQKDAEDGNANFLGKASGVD
Assay type: cell-based
Procedure, shortened: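 Cell-based reporter assay with recombinant guanylate cyclase expressed in a reporter cell line, per a published method. Activity reported as minimal effective concentration (MEC), in some cases as the mean of individual determinations.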

| Structure (SMILES) | MEC (minimal effective concentration) |
| --- | --- |
| CSCC[C@@H](CO)NC(=O)c1c(C)nc2c(OCC3CCCCC3)cccn12 [Example 90, 8-(cyclohexylmethoxy)-N-[(2S)-1-hydroxy-4-(methylsulphanyl)butan-2-yl]-2-methylimidazo[1,2-a]pyridine-3-carboxamide] | 1.0 µM |
| CC[C@H](C)[C@@H](CO)NC(=O)c1c(C)nc2c(OCC3CCCCC3)cccn12 [Example 91, 8-(cyclohexylmethoxy)-N-[(2S,3S)-1-hydroxy-3-methylpentan-2-yl]-2-methylimidazo[1,2-a]pyridine-3-carboxamide] | 1.0 µM |
| Cc1nc2c(OCC3CCCCC3)cccn2c1C(=O)NC1(CO)CCCC1 [Example 92, 8-(cyclohexylmethoxy)-N-[1-(hydroxymethyl)cyclopentyl]-2-methylimidazo[1,2-a]pyridine-3-carboxamide] | 1.0 µM |
| Cc1nc2c(OCC3CCCCC3)cccn2c1C(=O)N[C@H](CO)C(C)C [Example 93, 8-(cyclohexylmethoxy)-N-[(2S)-1-hydroxy-3-methylbutan-2-yl]-2-methylimidazo[1,2-a]pyridine-3-carboxamide] | 1.0 µM |
| Cc1nc2c(OCC3CCCCC3)cccn2c1C(=O)NC(CO)COC(C)(C)C (centres unmarked) [Example 94, N-(1-tert-butoxy-3-hydroxypropan-2-yl)-8-(cyclohexylmethoxy)-2-methylimidazo[1,2-a]-pyridine-3-carboxamide] | 3.0 µM |
| Cc1nc2c(OCC3CCCCC3)cccn2c1C(=O)N[C@H](CO)CC(C)C [Example 95, 8-(cyclohexylmethoxy)-N-[(2S)-1-hydroxy-4-methylpentan-2-yl]-2-methylimidazo[1,2-a]pyridine-3-carboxamide] | 3.0 µM |
| CCC(C)[C@H](CO)NC(=O)c1c(C)nc2c(OCC3CCCCC3)cccn12 (stereo partly drawn) [Example 96, 8-(cyclohexylmethoxy)-N-[(2R)-1-hydroxy-3-methylpentan-2-yl]-2-methylimidazo[1,2-a]pyridine-3-carboxamide] | 3.0 µM |
| Cc1nc2c(OCC3CCC3)cccn2c1C(=O)NCCC1(O)CCCC1 [Example 97, 8-(cyclobutylmethoxy)-N-[2-(1-hydroxycyclopentyl)ethyl]-2-methylimidazo[1,2-a]pyridine-3-carboxamide] | 1.0 µM |
| Cc1nc2c(OCC3CCC3)cccn2c1C(=O)NCCOCCO [Example 98, 8-(cyclobutylmethoxy)-N-[2-(2-hydroxyethoxy)ethyl]-2-methylimidazo[1,2-a]pyridine-3-carboxamide] | 3.0 µM |
| Cc1nc2c(OCC3CCC3)cccn2c1C(=O)NCCC1(O)CCCCC1 [Example 99, 8-(cyclobutylmethoxy)-N-[2-(1-hydroxycyclohexyl)ethyl]-2-methylimidazo[1,2-a]pyridine-3-carboxamide] | 3.0 µM |
| [2H]C([2H])(Oc1cccn2c(C(=O)N[C@@H](CO)CCCC)c(C)nc12)c1c(F)cccc1F [Example 115, 8-{[(2,6-difluorophenyl)(^2H2)methyl]oxy}-N-[(2R)-1-hydroxyhexan-2-yl]-2-methylimidazo[1,2-a]pyridine-3-carboxamide] | 0.01 µM |
| Cc1nc2c(OCc3c(F)cccc3F)cccn2c1C(=O)NCCC1(O)CCCCC1 [Example 116, 8-[(2,6-difluorobenzyl)oxy]-N-[2-(1-hydroxycyclohexyl)ethyl]-2-methylimidazo[1,2-a]pyridine-3-carboxamide] | 0.3 µM |
| Cc1nc2c(OCc3c(F)cccc3F)cccn2c1C(=O)NCCC1(O)CCCC1 [Example 117, 8-[(2,6-difluorobenzyl)oxy]-N-[2-(1-hydroxycyclopentyl)ethyl]-2-methylimidazo[1,2-a]pyridine-3-carboxamide] | 0.03 µM |
| Cc1nc2c(OCc3c(F)cccc3F)cccn2c1C(=O)N[C@H](C)CO [Example 118, 8-[(2,6-difluorobenzyl)oxy]-N-[(2R)-1-hydroxypropan-2-yl]-2-methylimidazo[1,2-a]-pyridine-3-carboxamide] | 0.3 µM |
| Cc1nc2c(OCc3c(F)cccc3F)cccn2c1C(=O)NC1(CO)CCC1 [Example 125, 8-[(2,6-Difluorobenzyl)oxy]-N-[1-(hydroxymethyl)cyclobutyl]-2-methylimidazo[1,2-a]pyridine-3-carboxamide] | 0.3 µM |
| C#Cc1cc(OCc2c(F)cccc2F)c2nc(C)c(C(=O)N[C@@H](CO)CCCC)n2c1 [Example 126, 8-[(2,6-Difluorobenzyl)oxy]-6-ethynyl-N-[(2R)-hydroxyhexan-2-yl]-2-methylimidazo[1,2-a]-pyridine-3-carboxamide] | 0.1 µM |
| Cc1nc2c(OCc3c(F)cccc3F)cc(Cl)cn2c1C(=O)N[C@@H](CO)CCCO [Example 127, 6-Chloro-8-[(2,6-difluorobenzyl)oxy]-N-[(2R)-1,5-dihydroxypentan-2-yl]-2-methylimidazo[1,2-a]-pyridine-3-carboxamide] | 0.3 µM |
| Cc1nc2c(OCc3c(F)cccc3F)cc(Cl)cn2c1C(=O)N[C@@H](CO)CCO [Example 128, 6-chloro-8-[(2,6-difluorobenzyl)oxy]-N-[(2R)-1,4-dihydroxybutan-2-yl]-2-methylimidazo[1,2-a]pyridine-3-carboxamide] | 0.3 µM |
| Cc1nc2c(OCc3c(F)cccc3F)cccn2c1C(=O)N[C@@H](CO)CCO [Example 129, 8-[(2,6-difluorobenzyl)oxy]-N-[(2R)-1,4-dihydroxybutan-2-yl]-2-methylimidazo[1,2-a]pyridine-3-carboxamide] | 3.0 µM |
| Cc1nc2c(OCc3c(F)cccc3F)cccn2c1C(=O)N[C@@H](CO)CCCO [Example 130, 8-[(2,6-difluorobenzyl)oxy]-N-[(2R)-1,5-dihydroxypentan-2-yl]-2-methylimidazo[1,2-a]pyridine-3-carboxamide] | 1.0 µM |
| CCCC[C@H](CO)NC(=O)c1c(C)nc2c(OCc3c(F)cccc3F)cc(Cl)cn12 [Example 131, 6-chloro-8-[(2,6-difluorobenzyl)oxy]-N-[(2R)-1-hydroxyhexan-2-yl]-2-methylimidazo[1,2-a]pyridine-3-carboxamide] | 0.01 µM |
| CCCC[C@H](CO)NC(=O)c1c(C)nc2c(OCc3c(F)cccc3F)cc(F)cn12 [Example 132, 8-[(2,6-difluorobenzyl)oxy]-6-fluoro-N-[(2R)-1-hydroxyhexan-2-yl]-2-methylimidazo[1,2-a]pyridine-3-carboxamide] | 0.03 µM |
| CCCC[C@H](CO)NC(=O)c1c(C)nc2c(OCc3c(F)cccc3F)cc(C)cn12 [Example 133, 8-[(2,6-difluorobenzyl)oxy]-N-[(2R)-1-hydroxyhexan-2-yl]-2,6-dimethylimidazo[1,2-a]pyridine-3-carboxamide] | 0.01 µM |
| Cc1nc2c(OCc3c(F)cccc3F)cccn2c1C(=O)N[C@@H](CO)CC[C@@H](O)C(F)(F)F [Example 135, 8-[(2,6-difluorobenzyl)oxy]-2-methyl-N-[(2R,5R)-6,6,6-trifluoro-1,5-dihydroxyhexan-2-yl]imidazo[1,2-a]pyridine-3-carboxamide trifluoroacetate (1:1)] | 0.1 µM |
| Cc1nc2c(OCc3c(F)cccc3F)cccn2c1C(=O)NCC(O)COc1ccc(F)cc1 (centres unmarked) [Example 136, 8-[(2,6-difluorobenzyl)oxy]-N-[3-(4-fluorophenoxy)-2-hydroxypropyl]-2-methylimidazo[1,2-a]pyridine-3-carboxamide] | 3.0 µM |
| Cc1nc2c(OCc3c(F)cccc3F)cccn2c1C(=O)NCC(O)COc1ccccc1 (centres unmarked) [Example 137, 8-[(2,6-difluorobenzyl)oxy]-N-(2-hydroxy-3-phenoxypropyl)-2-methylimidazo[1,2-a]-pyridine-3-carboxamide] | 3.0 µM |
